The structures appear in SMILES notation.

Common to all, as to type: cell-based
For assay [1], the system named is Hep3B cells. As to the kind of experiment: EPO produced by Hep3B cells under 21% O2, ELISA of culture supernatant. As for the experimental part: (§1) Hep3B cells, which produce EPO at a low O2 partial pressure, were cultured in an amount of 1.5-3.0×10^6 cells/petri dish (100 mm) by use of Dulbecco's modified eagles' medium (DMEM)/10% fetal calf serum (FCS) (10 ml). The next day, the culture liquid of each petri dish was renewed, and a predetermined amount of compound 1 was added thereto, followed by culture for 24 hours at 37° C. under 1% O2 or 21% O2. EPO contained in the resultant culture supernatant was measured through ELISA. Separately, EPO potentiator activity was measured in the following manner. The luciferase-pXP2 (serving as a reporter gene) of a Hep3B wild-type gene was ligated with an enhancer and potentiator fragment (144 bp), to thereby produce a modified Hep3B wild-type gene as Pwt. Hep3B cells were cultured in an amount of 1×10^6 cells/petri dish (30 mm) by use of 4-mL DMEM/10% FCS, and the above modified wild-type (2 μg) and β-galactosidase gene (1 μg) (serving as an internal standard) were inserted into each of the cultured cells through the lipofectin method. […] After completion of culture, luciferase activity and β-galactosidase activity of the resultant cell extract were determined. EPO potentiator activity is represented by the following formula.
Background: In an ELISA, binding on a coated surface is turned into a signal by an enzyme label.

The subject of assay [2] is EPO enhancer and potentiator fragment luciferase reporter in Hep3B cells. As to the kind of experiment: EPO potentiator activity, luciferase reporter (Pwt) in Hep3B cells, hypoxic induction. The conditions noted are these: control HI 52.2±10.7. Background: Reporter assays use an easily measured gene product as a stand-in for the process of interest.
Experimental: Hep3B cells, which produce EPO at a low O2 partial pressure, were cultured in an amount of 1.5-3.0×10^6 cells/petri dish (100 mm) by use of Dulbecco's modified eagles' medium (DMEM)/10% fetal calf serum (FCS) (10 ml). […] EPO contained in the resultant culture supernatant was measured through ELISA. Separately, EPO potentiator activity was measured in the following manner. The luciferase-pXP2 (serving as a reporter gene) of a Hep3B wild-type gene was ligated with an enhancer and potentiator fragment (144 bp), to thereby produce a modified Hep3B wild-type gene as Pwt. Hep3B cells were cultured in an amount of 1×10^6 cells/petri dish (30 mm) by use of 4-mL DMEM/10% FCS, and the above modified wild-type (2 μg) and β-galactosidase gene (1 μg) (serving as an internal standard) were inserted into each of the cultured cells through the lipofectin method. […] After completion of culture, luciferase activity and β-galactosidase activity of the resultant cell extract were determined. EPO potentiator activity is represented by the following formula.
HI (hypoxic induction)=(1% O2 luciferase/β-galactosidase)/(21% O2 luciferase/β-galactosidase)
In assay [3] the test system is Hep3B cells. The assay can be described thus: EPO produced by Hep3B cells under 1% O2, ELISA of culture supernatant. As for the experimental part:
as §1

On to `COc1cc(C=CCCCN2CCCN(CCCC=Cc3cc(OC)c(OC)c(OC)c3)CC2)cc(OC)c1OC` [compound 1, N,N′-bis(5-(3,4,5-trimethoxyphenyl)-4-pentenyl)homopiperazine], for which the “amount of EPO” value in the assay with Hep3B cells [1] (21% O2 (normal O2 partial pressure), 24 h, 10 μM compound 1, control 33.6±8.7) is reported as 49.5±2.3 mU/protein μg; in the assay with Hep3B cells [1] (21% O2, 24 h, 15 μM compound 1, control 33.6±8.7), 56.4±2.2 mU/protein μg; with Hep3B cells [1] (21% O2, 24 h, 30 μM compound 1, control 33.6±8.7), 116.8±5.2 mU/protein μg; in the assay with Hep3B cells [3] (1% O2 (low O2 partial pressure), 24 h, 10 μM compound 1, control 39.5±9.1), 71.0±6.0 mU/protein μg; in the assay with Hep3B cells [3] (1% O2, 24 h, 15 μM compound 1, control 39.5±9.1), 76.0±13.5 mU/protein μg; with Hep3B cells [3] (1% O2, 24 h, 30 μM compound 1, control 39.5±9.1) it was 91.5±17.8 mU/protein μg. Further, the “HI (hypoxic induction), EPO potentiator activity” value in assay [2] (10 μM compound 1 alone) was determined as 91.0±36.6; in assay [2] (10 μM compound 1 in the presence of 10^−3M L-NMMA), 63.4±7.5.

The values above are taken from patent publication US20040053918A1, “Erythropoietin production potentiator” (KOWA CO., LTD., priority 2002, published 2004).
